From US7115636B2, “Hetrocyclic aryl sulphonamides” (Bayer Healthcare AG, priority 2001, dated 2006) come the findings set out here.

Structures are written as SMILES.

Type in all cases: cell-based
Data set [1] in a line: Cytotoxicity on HELF cells (anti-HCMV cytopathogenicity test plates). Conditions: human, human lung fibroblasts (HELF), 6 days incubation. The method, then: (§1) The test compounds were employed as 50 millimolar (mM) solutions in dimethyl sulfoxide (DMSO). Ganciclovir, foscarnet and cidofovir served as reference compounds. After the addition of 2 μl in each case of the 50, 5, 0.5 and 0.05 mM DMSO stock solutions to 98 μl each of cell culture medium in row […] in duplicate, 1:2 dilutions using 50 μl each of medium up to row 11 of the 96-well plate were carried out. The wells in rows 1 and 12 each contained 50 μl of medium. 150 μl each of a suspension of 1×10^4 cells (human lung fibroblasts [HELF]) were then pipetted into the wells (row 1=cell control) or a mixture of HCMV-infected and non-infected HELF cells (M.O.I.=0.001-0.002), i.e. 1-2 infected cells to 1000 non-infected cells, was pipetted into rows 2-12. Row 12 (without substance) served as a virus control. The final test concentrations were 250-0.0005 μM. The plates were incubated at 37° C./5% CO2 for 6 days, i.e. until all cells were infected in the virus controls (100% cytopathogenic effect [CPE]). The wells were then fixed by addition of a mixture of formalin and Giemsa's stain and stained (30 minutes), washed with double-distilled water and dried at 50° C. in a drying oven. The plates were then evaluated visually using an overhead microscope (Plaque multiplier from Technomara). […]
Background: Cytopathic effects are the visible damage that an infection or toxin causes in cultured cells.

For data set [2], the system named is HCMV (human cytomegalovirus). Kind of data set: Anti-HCMV cytopathogenicity test. Conditions: Human betaherpesvirus 5, 144 h; inhibition of CPE by 50%, HCMV-infected HELF cells, M.O.I. 0.001–0.002, 6 days. The method, then: as §1, with “Anti-HCMV (anti-human cytomegalovirus) and anti-MCMV (anti-murine cytomegalovirus) cytopathogenicity tests: The test” for “The test”

A short description of data set [3]: Cytotoxicity on 3T3 cells (anti-MCMV test). To be noted: 3T3 mouse cells, 5 days incubation.
Data set [4] concerns MCMV (murine cytomegalovirus). Kind of data set: Anti-MCMV cytopathogenicity test. To be noted: Murid betaherpesvirus 1, 120 h; MCMV on 3T3 mouse cells, M.O.I. 0.05–0.1, 5 days. The method, then: Anti-HCMV (anti-human cytomegalovirus) and anti-MCMV (anti-murine cytomegalovirus) cytopathogenicity tests:
The test compounds were employed as 50 millimolar (mM) solutions in dimethyl sulfoxide (DMSO). Ganciclovir, foscarnet and cidofovir served as reference compounds. After the addition of 2 μl in each case of the 50, 5, 0.5 and 0.05 mM DMSO stock solutions to 98 μl each of cell culture medium in row 2 A-H in duplicate, 1:2 dilutions using 50 μl each of medium up to row 11 of the 96-well plate were carried out. The wells in rows 1 and 12 each contained 50 μl of medium. 150 μl each of a suspension of 1×10^4 cells (human lung fibroblasts [HELF]) were then pipetted into the wells (row 1=cell control) or a mixture of HCMV-infected and non-infected HELF cells (M.O.I.=0.001–0.002), i.e. 1–2 infected cells to 1000 non-infected cells, was pipetted into rows 2–12. Row 12 (without substance) served as a virus control. The final test concentrations were 250–0.0005 μM. The plates were incubated at 37° C./5% CO2 for 6 days, i.e. until all cells were infected in the virus controls (100% cytopathogenic effect [CPE]). The wells were then fixed by addition of a mixture of formalin and Giemsa's stain and stained (30 minutes), washed with double-distilled water and dried at 50° C. in a drying oven. The plates were then evaluated visually using an overhead microscope (Plaque multiplier from Technomara). […]

Regarding `CC1(C(=O)Nc2ccc(NS(=O)(=O)c3cccc(-c4noc([C@@H](N)CCCCN)n4)c3)cc2)CC1` [Example 1], the CC50 (in general, the concentration that lowers cell viability or growth by half) at 6 days in data set [1] is above 250 µM. Moreover, the EC50 (as a rule, the concentration that produces a half-maximal response) in data set [2] amounted to 0.028 µM; in data set [4], 0.035 µM. The compound further yielded a CC50 at 5 days in data set [3] of 18 µM.

`CC(C)[C@H](N)c1nc(-c2ccc(S(=O)(=O)Nc3cccc(NC(=O)C(C)(C)CF)c3)cc2)no1` [Example 3, N-(3-{[(4-{5-[(1S)-1-Amino-2-methylpropyl]-1,2,4-oxadiazol-3-yl}phenyl)sulphonyl]amino}phenyl)-3-fluoro-2,2-dimethylpropanamide]: in data set [1], the CC50 at 6 days was above 250 µM. The EC50 in data set [2] and in data set [4] was 0.074 µM in each case. Also, the CC50 at 5 days in data set [3] was found to be 63 µM.
